Patent US20050004155A1, “Use of methylnaltrexone to treat irritable bowel syndrome” (priority 2003, published 2005)

Columns and labels:
[1] = test system: patients with constipation-predominant IBS; settings: 16 mg three times a week over eight weeks, cited from earlier work
[2] = test system: subjects with IBS of the constipation-predominant and alternating types; settings: 1 mg twice daily for 8 weeks; 25 subjects; cited from earlier work
[3] = test system: patients with IBS; settings: 0.4 mg intravenously; 50 patients; versus placebo; cited from earlier work
[4] = test system: normal subjects; test: Oral-cecal transit time by lactulose hydrogen breath test; type: in vivo, human; settings: 12 doses of 0.3 mg/kg every 6 hours intravenous; 12 normal subjects not receiving opioids; mean±SD; baseline mean 101.3±29.4 minutes; P<0.05
Procedure: (§1) With approval from the Institutional Review Board, 12 normal subjects (8 males and 4 non-pregnant females) participated in a controlled trial. The mean age was 29.3±5.8 (mean+/−standard deviation [SD]) years. […] Subjects were administered 12 consecutive doses of methylnaltrexone at a dosage rate of 0.3 mg/kg every 6 hours via intravenous injection. Methylnaltrexone was dissolved in isotonic saline for administration in this study. No other excipients were present in the administered solution. Oral-cecal transit time was measured prior to the first dose and after the last dose, following repeated dosing for 3 days, using a lactulose hydrogen breath test (Yuan, C. S., et al., Clin. Pharmacol. Ther. 1996;59:469-475). A subjective rating test for possible opioid agonist effects was also employed (Yuan, C. S., et al., Drug Alcohol Dependence 1998;52:161-165). […] The reduction in the means was statistically significant at the level of P<0.05 using the paired t-test and the Wilcoxon signed rank test. […] The absence of statistically significant changes in overall subjective opioid ratings is consistent with the lack of penetration into the central nervous system by methylnaltrexone.

[5] = test system: normal subjects; test: Adverse effects during repeated intravenous dosing; type: in vivo, human; settings: 12 doses of 0.3 mg/kg every 6 hours intravenous
Procedure: as §1

[6] = white crystalline powder; cited from earlier work

C=C1CCC2(O)C3Cc4ccc(OC5OC(C(=O)O)C(O)C(O)C5O)c5c4C2(CCN3CC2CC2)C1O5 (stereo not shown) [nalmefene glucuronide]
gut transit time ([1]; patient reported): decreased | stool frequency ([1]; patient reported): increased | abdominal pain or bloating [1]: did not reduce | stool consistency [1]: not improved

C=CCN1CC[C@]23c4c5ccc(O)c4O[C@H]2C(=O)CC[C@@]3(O)[C@H]1C5 [naloxone]
adequate symptom relief versus placebo [2]: not statistically significantly different | subjective ratings such as severity ratings and pain scores [2]: Marginal but non-statistically significant improvements | degree of muscle spasm and relative intensity of pain [3]: not associated with any objective or subjective evidence of beneficial effect

C[N@+]1(CC2CC2)CC[C@]23c4c5ccc(O)c4O[C@H]2C(=O)CC[C@@]3(O)[C@H]1C5 [methylnaltrexone, N-methyl-naltrexone bromide]
oral-cecal transit time after 3 days of treatment [4]: 82.5 ± 20.7 min | adverse effects [5]: No significant adverse effects | solubility in water [6]: freely soluble in water
